pIC50: −log10 of the molar value.
The compounds below were run against DNA gyrase (Escherichia coli, UniProt P0AES4+P0AES6) (assay: Inhibition of full length Escherichia coli DNA gyrase ATPase activity measured for 20 mins by lactate dehydrogenase assay).
Assay type: protein-complex assay

Row | SMILES | pIC50
1 | Oc1ccc(Oc2ccc(Cl)cc2)cc1 | 3.57
2 | Cc1cc(Oc2ccc(Cl)cc2Cl)ccc1O | 4.08
3 | Oc1ccc(Oc2cccc(Cl)c2)cc1 | 3.49
4 | Oc1ccc(Oc2ccc(C(F)(F)F)cc2Cl)cc1 | 4.00
5 | Oc1ccc(Oc2ccc(C(F)(F)F)cc2)cc1 | 3.74
6 | Oc1ccc(Oc2ccc(Cl)cc2Cl)cc1 | 3.92
7 | CC(C)(c1ccccc1)c1ccc(O)cc1 | 3.41
8 | Oc1ccc(Oc2cccc(C(F)(F)F)c2)cc1 | 3.62
9 | Cc1ccc(CCC(=O)O)cc1 | 3.92

— ChEMBL document CHEMBL4257526, “Identification of an auxiliary druggable pocket in the DNA gyrase ATPase domain using fragment probes” (Medchemcomm, 2018)
